# pIC50: −log10 of the molar value.
# Target: GST-tagged recombinant human RIP2 (Homo sapiens (Human), UniProt O43353)
# Experiment: RIP2 Kinase Assay (ADP-Glo)
# Format: biochemical
# Settings: in vitro kinase activity, ATP 25 μM
# Method: GST-tagged recombinant human RIP2 (25 ng) is incubated with 5 μL of compounds (0.5% DMSO), 5 μL of MBP (0.5 μg/μl) and 5 μL of ATP (25 μM) in buffer (40 mM Tris, 7.5; 20 mM MgCl2; 0.1 mg/ml BSA; 50 μM DTT). The assay was started by incubating the reaction mixture in a 96-well plate at 30° C. for 60 minutes. After the incubation, 25 μL ADP-Glo reagent was added, and the reaction was incubated at 30° C. for 40 minutes to stop the reaction and degrade residual ATP. The ADP product was then converted to ATP by adding 50 μL per well of detection reagent. Luminescence was detected after 30 minutes room temperature incubation with the Molecular device I3X plate reader. The IC50 values were calculated from a series of percent inhibition values determined at a range of inhibitor concentration using software routines as implemented in the GraphPad Prism 7 software and SigmaPlot 13.0.
# Chain of GST-tagged recombinant human RIP2 (O43353 whole entry): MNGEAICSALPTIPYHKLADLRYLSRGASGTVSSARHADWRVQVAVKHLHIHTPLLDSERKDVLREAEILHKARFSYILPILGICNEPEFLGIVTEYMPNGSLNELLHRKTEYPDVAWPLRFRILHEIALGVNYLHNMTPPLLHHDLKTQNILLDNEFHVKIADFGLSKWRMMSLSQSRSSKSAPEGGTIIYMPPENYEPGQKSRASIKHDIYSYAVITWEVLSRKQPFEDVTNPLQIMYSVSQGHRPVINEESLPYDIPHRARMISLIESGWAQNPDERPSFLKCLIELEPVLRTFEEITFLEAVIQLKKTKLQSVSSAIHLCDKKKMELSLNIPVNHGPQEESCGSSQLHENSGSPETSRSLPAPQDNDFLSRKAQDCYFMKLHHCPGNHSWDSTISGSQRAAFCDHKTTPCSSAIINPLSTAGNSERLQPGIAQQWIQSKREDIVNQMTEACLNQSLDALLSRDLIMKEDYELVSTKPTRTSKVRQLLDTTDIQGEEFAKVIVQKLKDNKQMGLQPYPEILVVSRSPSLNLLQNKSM
row,SMILES,pIC50
1,Cc1c(-c2ccc3nc(N)c(C(=O)[C@@H]4C[C@@H]4F)n3c2)ccc2[nH]cnc12 [Example 103],6.30 to 7.00
2,Nc1nc2ccc(-c3ccc4[nH]ccc4c3)cn2c1C(=O)[C@H]1C[C@H]1F [Example 156],7.00 to 9.00
3,Nc1nc2ccc(-c3cccc(F)c3CCCO)cn2c1C(=O)[C@@H]1C[C@@H]1F [Example 123],6.30 to 7.00
4,Cc1c(F)cccc1-c1ccc2nc(N)c(C(=O)C3CNC3)n2c1 [Example 50],7.00 to 9.00
5,CSc1c(F)c(C)c(-c2ccc3nc(N)c(C(=O)[C@@H]4C[C@@H]4F)n3c2)c2cn[nH]c12 [Example 62],6.30 to 7.00
6,Cc1c(F)cccc1-c1ccc2nc(N)c(C(=O)[C@@H]3C[C@H]3F)n2c1 [Example 42],6.30 to 7.00
7,Cc1cccc(F)c1-c1ccc2nc(N)c(C(=O)[C@H]3C[C@@H]3F)n2c1 [Example 26],6.30 to 7.00
8,Nc1nc2ccc(-c3cccc(F)c3C(F)(F)F)cn2c1C(=O)[C@@H]1C[C@@H]1F [Example 10],< 6.00
9,Cc1c(F)cccc1-c1ccc2nc(N)c(C(=O)NC3CC3)n2c1 [Example 109],6.30 to 7.00
10,Nc1nc2ccc(-c3ccccc3CCCF)cn2c1C(=O)[C@@H]1C[C@@H]1F [Example 132],6.30 to 7.00
11,Nc1nc2ccc(-c3cccc4cc[nH]c34)cn2c1C(=O)[C@@H]1C[C@@H]1F [Example 59],7.00 to 9.00
12,Cc1c(F)cccc1-c1ccc2nc(N)c(C(=O)C3CCC3)n2c1 [Example 20],6.30 to 7.00
13,Nc1nc2ccc(-c3ccc4[nH]cnc4c3)cn2c1C(=O)[C@@H]1C[C@@H]1F [Example 102],7.00 to 9.00
14,Cc1c(-c2ccc3nc(N)c(C(=O)[C@H]4C[C@@H]4F)n3c2)ccc2[nH]ccc12 [Example 161],7.00 to 9.00
15,Cc1c(F)cccc1-c1ccc2nc(N)c(C(=O)C3CCN3C(=O)OC(C)(C)C)n2c1 (stereo not drawn) [Example 36],< 6.00
16,Cc1c(N)cc(F)cc1-c1ccc2nc(N)c(C(=O)[C@@H]3C[C@@H]3F)n2c1 [Example 133],7.00 to 9.00
17,"Cc1scnc1-c1ccc2nc(N)c(C(=O)[C@@H]3C[C@@H]3F)n2c1 [Example 28, (2-amino-6-(5-methylthiazol-4-yl)imidazo[1,2-a]pyridin-3-yl)((1S,2S)-2-fluorocyclopropyl)methanone]",6.30 to 7.00
18,"Cc1c(F)cccc1Nc1ccc2nc(N)c(C(=O)[C@@H]3C[C@@H]3F)n2c1 [Example 148, (2-amino-6-((3-fluoro-2-methylphenyl)amino)imidazo[1,2-a]pyridin-3-yl)((1S,2S)-2-fluorocyclopropyl)methanone]",6.30 to 7.00
19,Cc1c(F)cccc1-c1ccc2nc(N)c(C(=O)c3ncccn3)n2c1 [Example 76],7.00 to 9.00
20,Cc1c(-c2ccc3nc(N)c(C(=O)[C@@H]4C[C@@H]4F)n3c2)cc(F)cc1N(C)C [Example 147],6.30 to 7.00
21,CC(C)(C)OC(=O)n1cccc1-c1ccc2nc(N)c(C(=O)[C@@H]3C[C@@H]3F)n2c1 [Example 121],< 6.00

row,SMILES,pIC50
1,Cc1c(F)cc(N)cc1-c1ccc2nc(N)c(C(=O)[C@@H]3C[C@@H]3F)n2c1 [Example 155],7.00 to 9.00
2,"CC(=O)c1c(N(C(C)=O)C(C)=O)nc2ccc(-c3cccc(F)c3C)cn12 [Example 37, N-acetyl-N-(3-acetyl-6-(3-fluoro-2-methylphenyl)imidazo[1,2-a]pyridin-2-yl)acetamide]",< 6.00
3,Cc1ccc(F)cc1-c1ccc2nc(N)c(C(=O)[C@@H]3C[C@@H]3F)n2c1 [Example 15],7.00 to 9.00
4,Nc1nc2ccc(-c3ccco3)cn2c1C(=O)[C@@H]1C[C@@H]1F [Example 27],< 6.00
5,CC(C)(C)OC(=O)NCc1ccccc1-c1ccc2nc(N)c(C(=O)[C@@H]3C[C@@H]3F)n2c1 [Example 137],< 6.00
6,"CC(=O)Nc1nc2ccc(-c3cccc(F)c3C)cn2c1C(C)=O [Example 33, N-(3-acetyl-6-(3-fluoro-2-methylphenyl)imidazo[1,2-a]pyridin-2-yl)acetamide]",< 6.00
7,Cc1cc(F)ccc1-c1ccc2nc(N)c(C(=O)[C@H]3C[C@@H]3F)n2c1 [Example 25],6.30 to 7.00
8,Cc1cc(F)ccc1-c1ccc2nc(N)c(C(=O)[C@@H]3C[C@@H]3F)n2c1 [Example 7],6.30 to 7.00
9,Nc1nc2ccc(-c3ccc4cc[nH]c4c3)cn2c1C(=O)[C@@H]1C[C@@H]1F [Example 58],7.00 to 9.00
10,CO/C=C/c1c(F)cccc1-c1ccc2nc(N)c(C(=O)[C@@H]3C[C@@H]3F)n2c1 [Example 144],6.30 to 7.00
11,"Cc1c(F)cccc1-c1ccc2nc(N)c(C(=O)N(C)C3CC3)n2c1 [Example 107, 2-amino-N-cyclopropyl-6-(3-fluoro-2-methylphenyl)-N-methylimidazo[1,2-a]pyridine-3-carboxamide]",< 6.00
12,Cc1c(F)cccc1-c1ccc2nc(N)c(C(=O)C3CN(C(=O)OC(C)(C)C)C3)n2c1 [Example 49],< 6.00
13,"CC(=O)Nc1nc2ccc(-c3cccc(F)c3C)cn2c1C(=O)[C@@H]1C[C@@H]1F [Example 88, N-(6-(3-fluoro-2-methylphenyl)-3-((1S,2S)-2-fluorocyclopropane-1-carbonyl)imidazo[1,2-a]pyridin-2-yl)acetamide]",6.30 to 7.00
14,Cc1c(F)cccc1-c1ccc2nc(NCCN)c(C(=O)[C@@H]3C[C@@H]3F)n2c1 [Example 93],< 6.00
15,Cc1c(F)cccc1-c1ccc2nc(N)c(C(=O)c3cnn(C)c3)n2c1 [Example 21],6.30 to 7.00
16,"Cc1c(F)cccc1-c1cc(F)c2nc(N)c(C(=O)[C@@H]3C[C@@H]3F)n2c1 [Example 99, (2-amino-8-fluoro-6-(3-fluoro-2-methylphenyl)imidazo[1,2-a]pyridin-3-yl)((1S,2S)-2-fluorocyclopropyl)methanone]",6.30 to 7.00
17,"Cc1c(F)cccc1-c1ccc2nc(NC(=O)OC(C)(C)C)c(C(=O)[C@@H]3C[C@@H]3F)n2c1 [Example 70, tert-butyl (6-(3-fluoro-2-methylphenyl)-3-((1S,2S)-2-fluorocyclopropane-1-carbonyl)imidazo[1,2-a]pyridin-2-yl)carbamate]",< 6.00
18,Cc1c(-c2cc(F)c3nc(N)c(C(=O)[C@@H]4C[C@@H]4F)n3c2)cnc2[nH]ccc12 [Example 97],7.00 to 9.00
19,Cc1c(F)cccc1-c1ccc2nc(N)c(C(=O)C(C)(C)C)n2c1 [Example 22],6.30 to 7.00
20,"CC(=O)c1c(N)nc2ccc(-c3cccc(F)c3C)cn12 [Example 6, 1-(2-amino-6-(3-fluoro-2-methylphenyl)imidazo[1,2-a]pyridin-3-yl)ethan-1-one]",6.30 to 7.00
21,"CSc1c(F)c(Cl)c(-c2ccc3nc(N)c(C(=O)O[C@@H]4COC[C@H]4C)n3c2)c2cn[nH]c12 [Example 151, (3S,4R)-4-methyltetrahydrofuran-3-yl 2-amino-6-(5-chloro-6-fluoro-7-(methylthio)-1H-indazol-4-yl)imidazo[1,2-a]pyridine-3-carboxylate]",< 6.00

row,SMILES,pIC50
1,Cc1c(F)cccc1-c1ccc2nc(N)c(C(=O)C3CCN3)n2c1 (stereo not drawn) [Example 48],6.30 to 7.00
2,"CNCCNc1nc2ccc(-c3cccc(F)c3C)cn2c1C(=O)[C@@H]1C[C@@H]1F [Example 87, (6-(3-fluoro-2-methylphenyl)-2-((2-(methylamino)ethyl)amino)imidazo[1,2-a]pyridin-3-yl)((1S,2S)-2-fluorocyclopropyl)methanone]",< 6.00
3,CN1CCN(c2cccc(-c3ccc4nc(N)c(C(=O)[C@@H]5C[C@@H]5F)n4c3)c2)CC1 [Example 56],6.30 to 7.00
4,Cc1ccsc1-c1ccc2nc(N)c(C(=O)[C@@H]3C[C@@H]3F)n2c1 [Example 29],6.30 to 7.00
5,CSc1c(F)c(Cl)c(-c2ccc3nc(N)c(C(=O)[C@@H]4C[C@@H]4F)n3c2)c2cn[nH]c12 [Example 66],6.30 to 7.00
6,Nc1nc2ccc(-c3ccccc3OCCF)cn2c1C(=O)[C@@H]1C[C@@H]1F [Example 119],6.30 to 7.00
7,Nc1nc2ccc(-c3ccccc3CCF)cn2c1C(=O)[C@H]1C[C@@H]1F [Example 140],< 6.00
8,Cc1ccc(-c2ccc3nc(N)c(C(=O)[C@@H]4C[C@@H]4F)n3c2)c(C)c1 [Example 17],6.30 to 7.00
9,Nc1nc2ccc(-c3cccc(F)c3CCO)cn2c1C(=O)[C@@H]1C[C@@H]1F [Example 126],< 6.00
10,Cc1cc(-c2ccc3nc(N)c(C(=O)[C@@H]4C[C@@H]4F)n3c2)c(F)cc1N [Example 134],7.00 to 9.00
11,Nc1nc2ccc(-c3ccccc3Cl)cn2c1C(=O)[C@@H]1C[C@@H]1F [Example 34],6.30 to 7.00
12,Cc1cccc(-c2ccc3nc(N)c(C(=O)[C@@H]4C[C@@H]4F)n3c2)c1C [Example 11],7.00 to 9.00
13,CN1CCN(c2ccc(-c3ccc4nc(N)c(C(=O)[C@@H]5C[C@@H]5F)n4c3)cc2)CC1 [Example 53],6.30 to 7.00
14,CCCCC(=O)c1c(N)nc2ccc(-c3cccc(F)c3C)cn12 [Example 23],6.00 to 6.30
15,Cc1c(F)cccc1-c1ccc2nc(N)c(C(=O)[C@@H]3CC3(F)F)n2c1 [Example 47],6.30 to 7.00
16,Nc1nc2ccc(-c3ccccc3CCO)cn2c1C(=O)[C@@H]1C[C@@H]1F [Example 128],6.30 to 7.00
17,CC(C)(C)OC(=O)n1cc(-c2ccc3nc(N)c(C(=O)[C@@H]4C[C@@H]4F)n3c2)c2ccccc21 [Example 98],< 6.00
18,Cc1c(-c2ccc3nc(N)c(C(=O)[C@@H]4C[C@@H]4F)n3c2)cccc1C(F)(F)F [Example 19],6.30 to 7.00
19,Nc1nc2ccc(-c3ccccc3CCCO)cn2c1C(=O)[C@@H]1C[C@@H]1F [Example 129],6.30 to 7.00
20,Nc1nc2ccc(-c3ccc4[nH]ccc4c3)cn2c1C(=O)[C@@H]1C[C@H]1F [Example 158],7.00 to 9.00
21,Cc1c(F)cccc1-c1ccc2nc(N)c(C(=O)[C@H]3C[C@@H]3F)n2c1 [Example 43],6.30 to 7.00

# Reference: US11744824B2, “2-amino-3-carbonyl imidazopyridine and pyrazolopyridine compounds” (1ST Biotherapeutics, Inc., priority 2020, dated 2023)
